Measured values: patent US6006753A, “Use of GLP-1 or analogs to abolish catabolic changes after surgery” (Eli Lilly and Company, priority 1997, dated 1999)

Tests used:
[1] = Blood glucose in NIDDM patients infused for three hours at each meal during the day (Example 3); assay type: in vivo, human; conditions: five NIDDM patients
Source text: During the day, GLP-1 (7-36) amide was infused into five NIDDM patients for three hours during breakfast, lunch, and dinner.

[2] = Hormone levels (RIA) in patients undergoing hipartroplasty with hyperinsulinemic, normoglycemic clamp before and during surgery; assay type: in vivo, human; parameters: Glucagon / Cortisol: unit not given here
Experimental: (§1) After one hour at steady state conditions, all patients underwent a standardized surgical treatment (hipartroplasty). […] The hyperinsulinemic, normoglycemic clamp was then maintained during surgery and continued for a further 3-4 hours after surgery. The data will be presented according to the following nomenclature:
(§2) The control group received no basal or preop clamp on the day of surgery.
Blood samples were collected from a heated hand vein repeatedly during the basal, preop, early op, late op and postop periods. Blood glucose was measured immediately upon collection using the glucose oxidase method (Yellow Springs Instruments, Yellow Springs, Ohio) [Hugget, A. S., et al., Lancet 2:368-70 (1957)]. […] Methods of hormone radioimmunoassay, Academic Press, New York and London (1979) pp. 643-56]; and glucagon (Euro-Diagnostica AB, Malm6, Sweden) [Faloona, G. R., et al., Glucagpn radioimmunoassay technique. 5 Vol. 1: Academic Press, New York (1974)].
(§3) All values are individual values, or mean+SEM (standard error of the mean). Statistical significance is accepted at p<0.05 using Wilcoxon's signed rank test and the Mann-Whitney U-test for paired and unpaired data respectively.

[3] = Indirect calorimetry: substrate oxidation rates and energy expenditure during and after surgery; assay type: in vivo, human
Experimental: Indirect calorimetry (Deltatrac® Dansjoo, Sweden) [Frayn, K. N. J. Appl. Physiol. 55(2):628-34 (1983); Takala, J., et al., Crit. Care Med. 17(10): 1041-47 (1989)] was performed for 30 minutes during the basal phase, twice during surgery (early op and late op), and during the last 30 minutes of the preop and postop clamps. Timed sampling of urine for analysis of urinary urea excretion was performed. After correction for changes in urea pool size [Tappy, L, et al., Diabetes 37:1212-16 (1988)], non-protein energy expenditure (EE), respiratory quotients (RQ) and substrate oxidation rates were calculated.

[4] = Blood glucose in NIDDM patients continuously infused for ten hours during the night (Example 2); assay type: in vivo, human; conditions: five NIDDM patients
Experimental: GLP-1 (7-36) amide was administered by a subcutaneous infusion at a dose rate of 1.2 pmol/kg/hr, for ten hours during the night, to five patients having non-insulin dependent diabetes (NIDDM). […] The rate of insulin infusion was adjusted every two hours to achieve optimum control, and to avoid hypoglycemia.

[5] = Glucose infusion rate (GIR) in hyperinsulinemic, normoglycemic clamp, preop vs postop, elective surgery patients; assay type: in vivo, human
Experimental: as §1, §2, §3

[6] = overnight glucose infusion 5 mg/kg/min before elective abdominal surgery (Ljungqvist 1994); cited from earlier work
[7] = Hour 7:00, GLP-1 (7-36) amide infused three hours from start of each meal, insulin sc injection just before each meal
[8] = basal, 30 min before start of insulin infusion, insulin group n=7, mean ± SEM
[9] = early op, insulin 0.8 mU/kg/min iv, n=7
[10] = late op, insulin 0.8 mU/kg/min iv, n=7
[11] = postop clamp, insulin 0.8 mU/kg/min iv, n=7
[12] = preop clamp, insulin 0.8 mU/kg/min iv, n=7
[13] = insulin group vs control, p<0.05
[14] = Hour 21:00, continuous infusion for ten hours during the night (GLP-1 (7-36) amide sc 1.2 pmol/kg/hr; insulin rate adjusted every two hours)

insulin: insulin (Actrapid®, Novo, Copenhagen) in Example 1; insulin comparator in Examples 2 and 3
Average Blood Glucose [1, 7]: 6.1 mM | Average Blood Glucose ([1]; Hour 8:00, meal-time dosing): 7.0 mM | Average Blood Glucose ([1]; Hour 9:00, meal-time dosing): 9.1 mM | Average Blood Glucose ([1]; Hour 10:00, meal-time dosing): 9.9 mM | Average Blood Glucose ([1]; Hour 11:00, meal-time dosing): 8.2 mM | Average Blood Glucose ([1]; Hour 12:00, meal-time dosing): 6.5 mM | Average Blood Glucose ([1]; Hour 13:00, meal-time dosing): 9.1 mM | Average Blood Glucose ([1]; Hour 14:00, meal-time dosing): 8.1 mM | Average Blood Glucose ([1]; Hour 15:00, meal-time dosing): 7.0 mM | Average Blood Glucose ([1]; Hour 16:00, meal-time dosing): 7.2 mM | Average Blood Glucose ([1]; Hour 17:00, meal-time dosing): 6.5 mM | Average Blood Glucose ([1]; Hour 18:00, meal-time dosing): 7.3 mM | Average Blood Glucose ([1]; Hour 19:00, meal-time dosing): 6.1 mM | Average Blood Glucose ([1]; Hour 20:00, meal-time dosing): 6.0 mM | Average Blood Glucose ([1]; Hour 21:00, meal-time dosing): 6.4 mM | C-peptide [2, 8]: .68 ± .09 | Cortisol [2, 8]: 171 ± 41 | Glucagon [2, 8]: 58 ± 7 | C-peptide ([2]; early op (10 to 40 min after initiation of surgery), insulin 0.8 mU/kg/min iv, n=7): .42 ±.06 | Cortisol [2, 9]: 234 ± 46 | Glucagon [2, 9]: 40 ± 3 | C-peptide levels during surgery compared to the control group ([2]; insulin group vs fasted control): lower | Serum insulin levels ([2]; insulin group, during surgery and the postop clamp, 0.8 mU/kg/min iv): around 60 μU/ml | Serum cortisol levels after surgery ([2]; insulin group, vs preop): decreased | Serum glucagon levels after surgery ([2]; insulin group, vs preop, p<0.05): decreased | C-peptide ([2]; late op (last 30 min of surgery), insulin 0.8 mU/kg/min iv, n=7): .58 ± .12 | Cortisol [2, 10]: 212 ± 44 | Glucagon [2, 10]: 35 ± 4 | C-peptide [2, 11]: .52 ± .11 | Cortisol [2, 11]: 172 ± 83 | Glucagon [2, 11]: 33 ± 4 | Cortisol [2, 12]: 266 ± 35 | Glucagon [2, 12]: 52 ± 3 | C-peptide ([2]; preop clamp, insulin 0.8 mU/kg/min iv, n=7, mean ± SEM): .45 ± .05 | Substrate oxidation rates at the postop clamp as compared to the preop clamp ([3]; insulin group): no change | Resting energy expenditure (EE) during or after surgery, between groups ([3]; insulin group vs control): did not differ | Fat oxidation rates during surgery [3, 13]: significantly lower | Glucose oxidation rates during surgery [3, 13]: significantly higher | Average Blood Glucose ([4]; Hour 0:00, night infusion): 5.6 mM | Average Blood Glucose ([4]; Hour 1:00, night infusion): 5.1 mM | Average Blood Glucose ([4]; Hour 2:00, night infusion): 5.2 mM | Average Blood Glucose ([4]; Hour 3:00, night infusion): 5.4 mM | Average Blood Glucose ([4]; Hour 4:00, night infusion): 5.7 mM | Average Blood Glucose ([4]; Hour 5:00, night infusion): 6.0 mM | Average Blood Glucose ([4]; Hour 6:00, night infusion): 6.1 mM | Average Blood Glucose ([4]; Hour 7:00, night infusion): 6.1 mM | Average Blood Glucose [4, 14]: 6.9 mM | Average Blood Glucose ([4]; Hour 22:00, night infusion): 6.6 mM | Average Blood Glucose ([4]; Hour 23:00, night infusion): 5.9 mM | Catabolic changes after surgery ([5]; elevated insulin levels before and maintained throughout the operation): completely abolished | Change in average GIR in the postop clamp compared to the preop clamp ([5]; insulin group n=7, p=0.2): +16±20% | Average GIR during the postop clamp compared to the control group [5, 13]: significantly higher

CC[C@H](C)[C@H](NC(=O)[C@H](Cc1ccccc1)NC(=O)[C@H](CCC(=O)O)NC(=O)[C@H](CCCCN)NC(=O)[C@H](C)NC(=O)[C@H](C)NC(=O)[C@H](CCC(N)=O)NC(=O)CNC(=O)[C@H](CCC(=O)O)NC(=O)[C@H](CC(C)C)NC(=O)[C@H](Cc1ccc(O)cc1)NC(=O)[C@H](CO)NC(=O)[C@H](CO)NC(=O)[C@@H](NC(=O)[C@H](CC(=O)O)NC(=O)[C@H](CO)NC(=O)[C@@H](NC(=O)[C@H](Cc1ccccc1)NC(=O)[C@@H](NC(=O)CNC(=O)[C@H](CCC(=O)O)NC(=O)[C@H](C)NC(=O)[C@@H](N)Cc1c[nH]cn1)[C@@H](C)O)[C@@H](C)O)C(C)C)C(=O)N[C@@H](C)C(=O)N[C@@H](Cc1c[nH]c2ccccc12)C(=O)N[C@@H](CC(C)C)C(=O)N[C@H](C(=O)N[C@@H](CCCCN)C(=O)NCC(=O)N[C@@H](CCCNC(=N)N)C(N)=O)C(C)C [GLP-1 (7-36) amide, GLP-1(7-36) amide]
Average Blood Glucose [1, 7]: 5.4 mM | Average Blood Glucose ([1]; Hour 8:00, meal-time dosing): 4.9 mM | Average Blood Glucose ([1]; Hour 9:00, meal-time dosing): 5.7 mM | Average Blood Glucose ([1]; Hour 10:00, meal-time dosing): 5.8 mM | Average Blood Glucose ([1]; Hour 11:00, meal-time dosing): 8.1 mM | Average Blood Glucose ([1]; Hour 12:00, meal-time dosing): 9.4 mM | Average Blood Glucose ([1]; Hour 13:00, meal-time dosing): 7.2 mM | Average Blood Glucose ([1]; Hour 14:00, meal-time dosing): 5.3 mM | Average Blood Glucose ([1]; Hour 15:00, meal-time dosing): 7.2 mM | Average Blood Glucose ([1]; Hour 16:00, meal-time dosing): 10.4 mM | Average Blood Glucose ([1]; Hour 17:00, meal-time dosing): 9.2 mM | Average Blood Glucose ([1]; Hour 18:00, meal-time dosing): 5.7 mM | Average Blood Glucose ([1]; Hour 19:00, meal-time dosing): 6.6 mM | Average Blood Glucose ([1]; Hour 20:00, meal-time dosing): 8.3 mM | Average Blood Glucose ([1]; Hour 21:00, meal-time dosing): 9.3 mM | Blood glucose level immediately after terminating each infusion [1]: increased significantly | Post-prandial glucose excursions observed with insulin injection ([1]; while GLP-1 was infused): eliminated | Average Blood Glucose ([4]; Hour 0:00, night infusion): 4.4 mM | Average Blood Glucose ([4]; Hour 1:00, night infusion): 4.4 mM | Average Blood Glucose ([4]; Hour 2:00, night infusion): 4.8 mM | Average Blood Glucose ([4]; Hour 3:00, night infusion): 5.2 mM | Average Blood Glucose ([4]; Hour 4:00, night infusion): 5.4 mM | Average Blood Glucose ([4]; Hour 5:00, night infusion): 5.8 mM | Average Blood Glucose ([4]; Hour 6:00, night infusion): 6.0 mM | Average Blood Glucose ([4]; Hour 7:00, night infusion): 6.2 mM | Average Blood Glucose [4, 14]: 7.5 mM | Average Blood Glucose ([4]; Hour 22:00, night infusion): 5.4 mM | Average Blood Glucose ([4]; Hour 23:00, night infusion): 4.1 mM | Metabolic control compared with insulin ([4]; night infusion): better than that achieved by insulin | Effect on blood glucose ([4]; subcutaneous infusion 1.2 pmol/kg/hr, ten hours during the night): nearly normalized blood glucose

O=C[C@H](O)[C@@H](O)[C@H](O)[C@H](O)CO [glucose]
Average loss of insulin sensitivity after the operation [6]: 32%
